# Counter-ions that a name gives are not always drawn.
# How the values were obtained:
# FAAH = biological target: T1, FAAH (Homo sapiens, UniProt O00519); experiment: Assay Method 1: FAAH assay, 3H-anandamide hydrolysis in homogenate of cells transfected with human FAAH; type: biochemical; set-up: expressed in transfected cells; crude homogenate (T84 cell pellets named as alternative); settings: cell homogenate, 3H-AEA 80 nM, 1 h at rt, average of results
# T1 sequence (O00519 1-579): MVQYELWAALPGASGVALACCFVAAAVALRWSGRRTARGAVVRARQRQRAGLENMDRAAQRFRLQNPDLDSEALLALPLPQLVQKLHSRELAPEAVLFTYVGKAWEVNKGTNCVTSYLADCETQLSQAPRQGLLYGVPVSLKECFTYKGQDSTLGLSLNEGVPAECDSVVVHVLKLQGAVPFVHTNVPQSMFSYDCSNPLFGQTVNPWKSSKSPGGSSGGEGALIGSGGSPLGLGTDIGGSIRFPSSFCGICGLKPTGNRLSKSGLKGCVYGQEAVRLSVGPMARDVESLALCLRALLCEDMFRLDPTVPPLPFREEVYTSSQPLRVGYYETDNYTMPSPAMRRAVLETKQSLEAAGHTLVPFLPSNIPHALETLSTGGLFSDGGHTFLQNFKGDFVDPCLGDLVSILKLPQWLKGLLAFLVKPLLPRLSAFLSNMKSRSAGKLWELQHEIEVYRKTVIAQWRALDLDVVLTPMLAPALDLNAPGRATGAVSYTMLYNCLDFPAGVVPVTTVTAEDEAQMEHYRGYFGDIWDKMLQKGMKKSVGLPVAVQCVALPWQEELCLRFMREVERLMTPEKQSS
# Procedure: A. Transfection of Cells with Human FAAH
# (§1) A 10-cm tissue culture dish with a confluent monolayer of SK-N-MC cells was split 2 days (d) prior to transfection. Using sterile technique, the media was removed and the cells were detached from the dish by the addition of trypsin. One fifth of the cells were then placed onto a new 10-cm dish. Cells were grown in a 37° C. incubator with 5% CO2 in Minimal Essential Media Eagle with 10% Fetal Bovine Serum. After 2 d, cells were approximately 80% confluent. These cells were removed from the dish with trypsin and pelleted in a clinical centrifuge. The pellet was re-suspended in 400 μL complete media and transferred to an electroporation cuvette with a 0.4 cm gap between the electrodes. Supercoiled human FAAH cDNA (1 μg) was added to the cells and mixed. The voltage for the electroporation was set at 0.25 kV, and the capacitance was set at 960 After electroporation, the cells were diluted into complete media (10 mL) and plated onto four 10-cm dishes. Because of the variability in the efficiency of electroporation, four different concentrations of cells were plated. The ratios used were 1:20, 1:10, and 1:5, with the remainder of the cells being added to the fourth dish. The cells were allowed to recover for 24 h before adding the selection media (complete media with 600 μg/mL G418). After 10 d, dishes were analyzed for surviving colonies of cells. Dishes with well-isolated colonies were used. Cells from individual colonies were isolated and tested.
# (§2) T84 frozen cell pellets or transfected SK-N-MC cells (contents of 1×15 cm culture dishes) were homogenized in 50 mL of FAAH assay buffer (125 mM Tris, 1 mM EDTA, 0.2% Glycerol, 0.02% Triton X-100, 0.4 mM Hepes, pH 9). The assay mixture consisted of 50 μL of the cell homogenate, 10 μL of the test compound, and 40 μL of anandamide [1-^3H-ethanolamine] (^3H-AEA, Perkin-Elmer, 10.3 Ci/mmol), which was added last, for a final tracer concentration of 80 nM. The reaction mixture was incubated at rt for 1 h. During the incubation, 96-well Multiscreen filter plates (catalog number MAFCNOB50; Millipore, Bedford, Mass., USA) were loaded with 25 μL of activated charcoal (Multiscreen column loader, catalog number MACL09625, Millipore) and washed once with 100 μL of MeOH. Also during the incubation, 96-well DYNEX MicroLite plates (catalog number NL510410) were loaded with 100 μL of MicroScint40 (catalog number 6013641, Packard Bioscience, Meriden, Conn., USA). After the 1 h incubation, 60 μL of the reaction mixture were transferred to the charcoal plates, which were then assembled on top of the DYNEX plates using Centrifuge Alignment Frames (catalog number MACF09604, Millipore). The unbound labeled ethanolamine was centrifuged through to the bottom plate (5 min at 2000 rpm), which was preloaded with the scintillant, as described above. The plates were sealed and left at rt for 1 h before counting on a Hewlett Packard TopCount.
# (§3) Results for compounds tested in these assays are summarized in Table 1, as an average of results obtained. Compounds were tested in the free base or trifluoroacetic acid salt form. Compounds tested in the trifluoroacetic acid salt form are indicated as such by a “*” designation after the example number. Where activity is shown as greater than (>) a particular value, the value is the solubility limit of the compound in the assay medium or the highest concentration tested in the assay.
# rat FAAH = biological target: T2, rat FAAH (Rattus norvegicus, UniProt P97612); experiment: Assay Method 2: FAAH assay, 3H-anandamide hydrolysis in homogenate of cells transfected with rat FAAH; type: biochemical; settings: cell homogenate, 3H-AEA 80 nM, 1 h at rt, average of results
# T2 construct: expressed in transfected cells; crude homogenate
# T2 sequence (P97612 1-579): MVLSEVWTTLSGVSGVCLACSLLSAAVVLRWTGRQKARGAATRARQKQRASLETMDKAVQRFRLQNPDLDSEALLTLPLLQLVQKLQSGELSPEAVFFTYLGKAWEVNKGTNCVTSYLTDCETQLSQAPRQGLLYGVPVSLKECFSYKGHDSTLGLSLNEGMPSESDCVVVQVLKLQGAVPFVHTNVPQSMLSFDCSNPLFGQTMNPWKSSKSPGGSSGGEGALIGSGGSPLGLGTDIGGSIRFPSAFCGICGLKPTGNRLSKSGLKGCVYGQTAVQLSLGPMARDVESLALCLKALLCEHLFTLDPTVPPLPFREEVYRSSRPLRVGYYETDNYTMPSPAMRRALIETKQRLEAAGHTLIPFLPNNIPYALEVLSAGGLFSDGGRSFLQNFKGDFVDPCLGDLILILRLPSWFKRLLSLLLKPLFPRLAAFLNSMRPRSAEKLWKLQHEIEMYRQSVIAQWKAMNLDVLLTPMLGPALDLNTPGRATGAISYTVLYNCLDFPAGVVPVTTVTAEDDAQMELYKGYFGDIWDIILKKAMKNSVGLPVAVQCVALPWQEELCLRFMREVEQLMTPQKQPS
# Procedure: A. Transfection of Cells with Rat FAAH
# as §1, with “rat” for “human”, “960 μF.” for “960”
# as §2, §3
SMILES,IC50 (FAAH) [nM],IC50 (rat FAAH) [nM]
"O=C(Nc1cnccc1Cl)N1CCC(CCOc2cccc(Oc3ccc(Cl)cc3)c2)C1 (stereo not drawn) [Example 64, 3-{2-[3-(4-Chloro-phenoxy)-phenoxy]-ethyl}-pyrrolidine-1-carboxylic acid (4-chloro-pyridin-3-yl)-amide]",63,73
"O=C(Nc1cccnc1)N1CCC(COc2cccc(Oc3ccc(Cl)cc3)c2)C1 (stereo not drawn) [Example 51, 3-{[3-(4-Chlorophenoxy)phenoxy]methyl}-N-pyridin-3-ylpyrrolidine-1-carboxamide]",200,62
"CS(=O)(=O)c1ccc(Oc2cccc(OCC3CCN(C(=O)Nc4cnccc4Cl)C3)c2)cc1 (stereo not drawn) [Example 50, N-(4-Chloropyridin-3-yl)-3-({3-[4-(methylsulfonyl)phenoxy]phenoxy}methyl)pyrrolidine-1-carboxamide]",9,97
"O=C(Nc1cnccc1Cl)N1CC[C@@H](COc2cccc(Oc3ccc(Cl)cc3)c2)C1 [Example 56, (3R)-3-[3-(4-Chloro-phenoxy)-phenoxymethyl]-pyrrolidine-1-carboxylic acid (4-chloro-pyridin-3-yl)-amide]",4,2
"O=C(Nc1cnccc1Cl)N1CC(CCOc2cccc(Oc3ccc(Cl)cn3)c2)C1 [Example 48, 3-{2-[3-(5-Chloro-pyridin-2-yloxy)-phenoxy]-ethyl}-azetidine-1-carboxylic acid (4-chloro-pyridin-3-yl)-amide]",1,5
"O=C(Nc1cccnc1)N1CC(CCOc2cccc(Oc3ccc(OC(F)(F)F)cc3)c2)C1 [Example 29, 3-{2-[3-(4-Trifluoromethoxy-phenoxy)-phenoxy]-ethyl}-azetidine-1-carboxylic acid pyridin-3-ylamide]",53,400
"O=C(Nc1cnccc1Cl)N1CCC(CCc2ccc3c(c2)OC(F)(F)O3)C1 (stereo not drawn) [Example 78, 3-[2-(2,2-Difluoro-benzo[1,3]dioxol-5-yl)-ethyl]-pyrrolidine-1-carboxylic acid (4-chloro-pyridin-3-yl)-amide]",230,320
"O=C(Nc1cccnc1)N1CC(COc2ccc3cccc(Cl)c3n2)C1 [Example 22, 3-(8-Chloro-quinolin-2-yloxymethyl)-azetidine-1-carboxylic acid pyridin-3-ylamide]",1300,500
"O=C(Nc1cccnc1)N1CCC(CCOc2cccc(Oc3ccc(Cl)cc3)c2)C1 (stereo not drawn) [Example 63, 3-{2-[3-(4-Chloro-phenoxy)-phenoxy]-ethyl}-pyrrolidine-1-carboxylic acid pyridin-3-ylamide]",600,630
"O=C(Nc1cccnc1)N1CC(COc2cccc(C(F)(F)F)c2)C1 [Example 8, 3-(3-Trifluoromethyl-phenoxymethyl)-azetidine-1-carboxylic acid pyridin-3-ylamide, trifluoroacetate salt]",2400,620
"O=C(Nc1cccnc1)N1CCC(CCOc2cccc(OC(F)(F)F)c2)C1 (stereo not drawn) [Example 59, 3-[2-(3-Trifluoromethoxy-phenoxy)-ethyl]-pyrrolidine-1-carboxylic acid pyridin-3-ylamide]",> 10000,> 10000
"O=C(Nc1cccnc1)N1CC(CCOc2cccc(Oc3ccc(Cl)cc3)c2)C1 [Example 44, 3-{2-[3-(4-Chloro-phenoxy)-phenoxy]-ethyl}-azetidine-1-carboxylic acid pyridin-3-ylamide]",13,27
"O=C(Nc1cccnc1)N1CC(COc2cccc(Oc3ccc(OC(F)(F)F)cc3)c2)C1 [Example 25, 3-[3-(4-Trifluoromethoxy-phenoxy)-phenoxymethyl]-azetidine-1-carboxylic acid pyridin-3-ylamide]",50,230
"O=C(Nc1cccnc1)N1CC(CCOc2ccc3ccccc3c2)C1 [Example 35, 3-[2-(Naphthalen-2-yloxy)-ethyl]-azetidine-1-carboxylic acid pyridin-3-ylamide, trifluoroacetate salt]",160,350
"O=C(Nc1cccnc1)N1CC(COc2ccc(OC(F)(F)F)cc2)C1 [Example 5, 3-(4-Trifluoromethoxy-phenoxymethyl)-azetidine-1-carboxylic acid pyridin-3-ylamide]",> 10000,3000
"O=C(Nc1ccc2nccn2c1)N1CC(CCOc2cccc(Oc3ccc(Cl)cc3)c2)C1 [Example 41, 3-{2-[3-(4-Chloro-phenoxy)-phenoxy]-ethyl}-azetidine-1-carboxylic acid imidazo[1,2-a]pyridin-6-ylamide]",3000,1000
"O=C(Nc1cnccc1Cl)N1CC(CCOc2cccc(Oc3ccc(Cl)cc3)c2)C1 [Example 28, 3-{2-[3-(4-Chloro-phenoxy)-phenoxy]-ethyl}-azetidine-1-carboxylic acid (4-chloro-pyridin-3-yl)-amide]",1,1
"O=C(Nc1cccnc1)N1CC(COc2ccccc2)C1 [Example 2, 3-Phenoxymethyl-azetidine-1-carboxylic acid pyridin-3-ylamide, trifluoroacetate salt]",> 10000,> 10000

# Reference: US8901111B2, “Aryl-substituted heterocyclic urea modulators of fatty acid amide hydrolase” (Janssen Pharmaceutica NV, priority 2009, dated 2014)
